Legend:
[1] = molecular target: wild-type (WT) truncated human STING protein, amino acids 155-379 (Homo sapiens (Human), UniProt Q86WV6, H232R); test: Human WT STING [3H] 2′,3′-cGAMP scintillation proximity competition binding assay; details: read-out: Human WT Binding IC50
Excerpt: (§1) A human STING [^3H] 2′,3′-cGAMP scintillation proximity competition binding assay was utilized to detect binding of compounds to STING protein. […] The protein encoding plasmid contained a HIS tag, followed by an Avi tag and then a SUMO tag, which were followed by the STING coding sequence within the pET-28a (+) vector. The plasmid was transfected into a BL21 (DE3)/BirA E. coli co-expression strain. Protein was purified from the bacterial lysate using a cobalt-affinity column. The purified protein was dialyzed against PBS and then 20% glycerol was added prior to storage at −80° C.
(§2) 2′,3′-cGAMP in assay buffer (50 mM Tris pH 7.5, 100 mM NaCl, 0.1% Fatty Acid Free BSA). Test compounds (2.5 μL) were added to the plate first followed by a 25 μL mixture of STING protein, streptavidin PVT SPA beads (Perkin Elmer) and 10 μL [^3H] 2′,3′-cGAMP. Plates were incubated at room temperature for 18 hrs and read on a Wallac MicroBeta TriLux (Perkin Elmer).

[2] = molecular target: AQ variant of truncated human STING protein, amino acids 155-379 (Homo sapiens (Human), UniProt Q86WV6, G230A/H232R/R293Q); test: Human AQ STING [3H] 2′,3′-cGAMP scintillation proximity competition binding assay; details: read-out: Human AQ Binding IC50
Excerpt: as §1, §2

human STING (WT) = human STING (WT) (Homo sapiens (Human), UniProt Q86WV6, H232R); test: Thermal shift binding assay, human STING (WT); details: 100 μM compound, 5 μM STING protein; read-out: Human STING(WT) Tm Shift
[3] = molecular target: human STING (G230A-R293Q) (Homo sapiens (Human), UniProt Q86WV6, G230A/H232R/R293Q); test: Thermal shift binding assay, human STING (AQ); details: 100 μM compound, 5 μM STING protein; read-out: Human STING(AQ) Tm Shift
human STING (R232H) = human STING (R232H) (Homo sapiens, UniProt Q86WV6); test: Thermal shift binding assay, human STING (R232H); details: 100 μM compound, 5 μM STING protein; read-out: Human STING(R232H) Tm Shift
mouse STING = mouse STING (Mus musculus (Mouse), UniProt Q3TBT3); test: Thermal shift binding assay, mouse STING; details: 100 μM compound, 5 μM STING protein; read-out: Mouse STING Tm Shift
[4] = system: STING pathway, THP1 cells; test: Human IFN-α/β induction assay (THP1 supernatants on HEK-Blue IFN-α/β reporter cells); format: cell-based; details: THP1 cells 5 hrs, HEK-Blue reporter cells 24 hrs
Procedure: Genetically engineered human type-1 Interferons (IFN-α/β) sensor cells-HEK Blue™ IFNα/β cells (Invivogen) were employed to measure the type-1 IFNs produced by THP1 cells that are treated with activators of STING. The human embryonic (HEK) Blue™ cells are specially designed to monitor the activation of JAK/STAT pathway induced by type 1 IFNs. Briefly, THP1 cells are treated with compounds for 5 hrs. In the second step, supernatants of THP1 cells are transferred to HEK Blue™ IFNα/β reporter cells and incubated for 24 hrs. The secreted embryonic alkaline phosphatase (SEAP) activity in the supernatants of HEK blue IFNα/3 reporter cells is measured and used to determine the quantities of IFNs.
HEK-Blue IFN-α/β reporter cells (Invivogen) were used to measure the secretion of IFN-α/β into culture supernatants of THP1 cells following STING pathway activation. In the first step, THP1 cells were cultured in presence of STING activators for 5 hrs at 37° C., in a 5% CO2 tissue culture incubator, which facilitates the release of IFN-α/β into the supernatants. In the second step, cell supernatants from THP1 cells were transferred to HEK-Blue IFN-α/β reporter cells and incubated at 37° C., in a 5% CO2 incubator for 24 hrs. HEK-Blue IFN-α/β reporter cells are specifically designed to monitor the activation of JAK-STAT pathway activation by type 1 IFNs. These cells express a secreted embryonic alkaline phosphatase (SEAP) reporter gene under the control of ISG54 promoter, which is a well-known interferon stimulatory gene activated by type 1 IFNs. Upon IFN-α/β stimulation, HEK-Blue IFN-α/β reporter cells activate the JAK-STAT pathway and subsequently the expression of the reporter gene. SEAP which is secreted in the supernatant is easily detectable using alkaline phosphatase detection medium (Quanti-Blue reagent from Invivogen).
These assays were run by adding 2 μL of compound stock solution to tissue culture treated 384-well plates with electronic pipettes. Compounds were diluted in autoclaved sterile water, initially spotted on the intermediate dilution plate and then to the assay plate. […]

[5] = system: STING signaling, RAW-Dual reporter cells; test: Measurement of mouse IFN-β (ELISA); format: cell-based; details: Mus musculus, […]
Excerpt: Mouse Interferon-β (IFN-β) in the supernatants of murine macrophages treated with STING activators was quantified using sandwich enzyme linked immunosorbent assay (ELISA). Briefly, IFN-β binds to plates coated with antibody and detection is accomplished using a detection antibody followed by streptavidin conjugated to horseradish peroxidase. Tetramethyl-benzidine is used as the substrate in this kit (PBL Assay Science). […] In this invention, mouse IFN-β ELISA is used to determine the potency of compound on STING pathway activation in mouse macrophages.
Murine macrophage derived cell line RAW-Dual reporter cells (Invivogen) were used to measure the IFN-β produced by STING signaling activation. Briefly, 20,000 cells in 27 μL were seeded into tissue culture treated 384-well plate that contained 3 μL of test compound. Cells were incubated at 37° C., in a 5% CO2 incubator for 5.5 hours. Supernatants from treated cells were diluted 20-fold and prior to measurement of IFN-β levels using ELISA kit (PBL Assay Science). 100 μL of diluted sample was added to ELISA plate. Plates were incubated at RT for 1 hour with shaking at 650 rpm. Post incubation, samples were aspirated from wells and the wells were washed 4 times. Diluted antibody (50 μL) was added to plates and incubated at RT for 30 minutes with shaking, followed by aspiration of antibody and 4× washes. Diluted HRP (horseradish peroxidase) solution (50 μL) was added and incubated for 10 minutes, followed by aspiration of the solution and 4× wash steps. After the final wash steps, plates were incubated with 100 μL of TMB (tetramethyl benzidine) substrate for 10 minutes, followed by addition of 100 μL of stop solution and plates were read on Envision plate reader for optical density.

[6] = system: STING pathway genes, THP1 Dual (HAQ) human cells; test: qRT-PCR assay, THP1 Dual (HAQ) human cells; format: cell-based
MC-38 tumor [7] = test: MC-38 tumor bearing mice treated with Example 1C and anti-PD-1, anti-PD-L1, anti-CTLA4; format: in vivo, C57BL/6J mice; details: for #Tumor Free Mice after Treatment: 10 animals/group
Excerpt: The animals were terminated when the tumor size reached 2,000 mm^3.

MC-38 tumor [8] = test: Treatment of MC-38 tumors with Example 1C and radiotherapy; format: in vivo, C57BL/6J mice; details: for #Tumor Free Mice after Treatment: 10 animals/group
Excerpt: Tumors grew for 7 days to an average size of 100 mm^3. […] On Days −2, −1 and 0 received 5 Gy of radiation targeted to the tumor using the Small Animal Radiation Research Platform (SARRP) manufactured by Xstrahl Inc. Radiotherapy treatments were given according to the outline in Table 18. […] Radiotherapy treatments were given according to the outline in Table 19.

MC-38 tumor [9] = test: MC-38 tumor bearing mice treated with Example 1C and anti-PD-1
CT-26 tumor = CT-26 tumor bearing mice, intra-tumoral treatment and re-challenge; details: for Number of surviving mice: 50 μg intra-tumoral Days 0, 3, 7; for Number of surviving mice in the re-challenge: mice with complete regression after 50 μg, re-challenged with CT-26, no further treatment
[10] = CTLA4 + PD-L1 (5 + 5 mg/kg) + 5 μg Example 1C
[11] = Iso Ab (10 mg/kg) + 5 μg Example 1C
[12] = PD1 + PD-L1 (5 + 5 mg/kg) + 5 μg Example 1C
[13] = Example 1C 5 μg IT Day 0, 3, 7, 14, no RT
[14] = RT (5 Gy) Day −1, 0 / Example 1C 5 μg IT Day 0, 3, 7, 14
[15] = RT (5 Gy) Day −2, −1, 0 / Example 1C 5 μg IT Day 0, 3, 7, 14

Chain of human STING (G230A-R293Q) (Q86WV6 155-379 G230A/H232R/R293Q): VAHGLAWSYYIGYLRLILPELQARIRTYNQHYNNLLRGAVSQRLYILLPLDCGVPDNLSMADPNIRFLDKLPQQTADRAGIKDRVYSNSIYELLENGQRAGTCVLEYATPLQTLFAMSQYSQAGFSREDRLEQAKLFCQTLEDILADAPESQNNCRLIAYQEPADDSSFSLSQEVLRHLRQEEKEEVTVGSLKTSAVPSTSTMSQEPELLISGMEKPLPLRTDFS
Chain of AQ variant of truncated human STING protein, amino acids 155-379 (Q86WV6 155-379 G230A/H232R/R293Q): as above
Chain of mouse STING (Q3TBT3 154-378): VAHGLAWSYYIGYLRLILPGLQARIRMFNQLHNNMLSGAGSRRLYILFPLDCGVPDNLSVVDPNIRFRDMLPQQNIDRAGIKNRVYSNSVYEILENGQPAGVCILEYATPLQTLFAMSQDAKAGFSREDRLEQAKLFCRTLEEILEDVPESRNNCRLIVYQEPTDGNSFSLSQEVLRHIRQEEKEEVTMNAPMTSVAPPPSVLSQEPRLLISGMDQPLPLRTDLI
Chain of wild-type (WT) truncated human STING protein, amino acids 155-379 (Q86WV6 155-379 H232R): as the sequence (Q86WV6 155-379 G230A/H232R/R293Q) above, with A76G, Q139R counted along it
Chain of human STING (WT) (Q86WV6 155-379 H232R): as the sequence (Q86WV6 155-379 G230A/H232R/R293Q) above, with A76G, Q139R counted along it

## Nc1nc2c(ncn2[C@@H]2O[C@@H]3COP(=O)(S)OCCn4c(nc5cncnc54)COP(=O)(S)O[C@@H]2[C@@H]3F)c(=O)[nH]1 (single isomer, unassigned) [Example 1C]
[1]
  IC50: < 1000 nM
[2]
  IC50: < 1000 nM
Human STING (WT)
  ΔTm at 100 µM: 10.1 to 20 °C
[3]
  ΔTm at 100 µM: > 20 °C
Human STING (R232H)
  ΔTm at 100 µM: 5 to 10 °C
Mouse STING
  ΔTm at 100 µM: > 20 °C
[4]
  EC50: < 5000 nM
[5]
  EC50: < 5000 nM
[6]
  increase in CXCL10: 1000 fold
  increase in IL-6 compared to Control: 300 fold
  increase of IFN-β mRNA compared to ADU-S100: 30 fold
  increase of IFN-β mRNA compared to Control: 4000 fold
MC-38 tumor [7]; [10]
  #Tumor Free Mice after Re-challenge: 6/6
  #Tumor Free Mice after Treatment: 6/6
MC-38 tumor [7]; [11]
  #Tumor Free Mice after Re-challenge: 1
  #Tumor Free Mice after Treatment: 2
MC-38 tumor [7]; [12]
  #Tumor Free Mice after Re-challenge: 5
  #Tumor Free Mice after Treatment: 8
MC-38 tumor [8]; [13]
  #Tumor Free Mice after Re-challenge: 0/0
  #Tumor Free Mice after Treatment: 0/0
MC-38 tumor [8]; [14]
  #Tumor Free Mice after Re-challenge: 3
  #Tumor Free Mice after Treatment: 4
MC-38 tumor [8]; [15]
  #Tumor Free Mice after Re-challenge: 7
  #Tumor Free Mice after Treatment: 8
MC-38 tumor [9]; 5 μg Example 1C + 10 mg/kg Anti-PD-1, Day 0
  Number of surviving mice: 10/10
MC-38 tumor [9]; 5 μg Example 1C + 10 mg/kg Anti-PD-1, Day 3
  Number of surviving mice: 10/10
MC-38 tumor [9]; 5 μg Example 1C + 10 mg/kg Anti-PD-1, Day 6
  Number of surviving mice: 10/10
MC-38 tumor [9]; 5 μg Example 1C + 10 mg/kg Anti-PD-1, Day 10
  Number of surviving mice: 10/10
MC-38 tumor [9]; 5 μg Example 1C + 10 mg/kg Anti-PD-1, Day 14
  Number of surviving mice: 10/10
MC-38 tumor [9]; 5 μg Example 1C + 10 mg/kg Anti-PD-1, Day 17
  Number of surviving mice: 10/10
MC-38 tumor [9]; 5 μg Example 1C + 10 mg/kg Anti-PD-1, Day 21
  Number of surviving mice: 10/10
MC-38 tumor [9]; 5 μg Example 1C + 10 mg/kg Anti-PD-1, Day 24
  Number of surviving mice: 10/10
MC-38 tumor [9]; 5 μg Example 1C + 10 mg/kg Anti-PD-1, Day 27
  Number of surviving mice: 9/10
MC-38 tumor [9]; 5 μg Example 1C + 10 mg/kg Anti-PD-1, Day 30
  Number of surviving mice: 8/10
MC-38 tumor [9]; 5 μg Example 1C + 10 mg/kg Anti-PD-1, Day 34
  Number of surviving mice: 7/10
MC-38 tumor [9]; 5 μg Example 1C intra-tumoral Days 0, 3, 7, Day 0
  Number of surviving mice: 10/10
MC-38 tumor [9]; 5 μg Example 1C intra-tumoral Days 0, 3, 7, Day 3
  Number of surviving mice: 10/10
MC-38 tumor [9]; 5 μg Example 1C intra-tumoral Days 0, 3, 7, Day 6
  Number of surviving mice: 10/10
MC-38 tumor [9]; 5 μg Example 1C intra-tumoral Days 0, 3, 7, Day 10
  Number of surviving mice: 10/10
MC-38 tumor [9]; 5 μg Example 1C intra-tumoral Days 0, 3, 7, Day 14
  Number of surviving mice: 10/10
MC-38 tumor [9]; 5 μg Example 1C intra-tumoral Days 0, 3, 7, Day 17
  Number of surviving mice: 10/10
MC-38 tumor [9]; 5 μg Example 1C intra-tumoral Days 0, 3, 7, Day 21
  Number of surviving mice: 10/10
MC-38 tumor [9]; 5 μg Example 1C intra-tumoral Days 0, 3, 7, Day 24
  Number of surviving mice: 10/10
MC-38 tumor [9]; 5 μg Example 1C intra-tumoral Days 0, 3, 7, Day 27
  Number of surviving mice: 7/10
MC-38 tumor [9]; 5 μg Example 1C intra-tumoral Days 0, 3, 7, Day 30
  Number of surviving mice: 3/10
MC-38 tumor [9]; 5 μg Example 1C intra-tumoral Days 0, 3, 7, Day 34
  Number of surviving mice: 1/10
CT-26 tumor; Day 0
  Number of surviving mice: 10/10
CT-26 tumor; Day 3
  Number of surviving mice: 10/10
CT-26 tumor; Day 7
  Number of surviving mice: 10/10
CT-26 tumor; Day 10
  Number of surviving mice: 10/10
CT-26 tumor; Day 14
  Number of surviving mice: 10/10
CT-26 tumor; Day 17
  Number of surviving mice: 10/10
CT-26 tumor; Day 20
  Number of surviving mice: 10/10
CT-26 tumor; Day 23
  Number of surviving mice: 10/10
CT-26 tumor; Day 35
  Number of surviving mice: 8/10
CT-26 tumor; Rechallenge Day 0
  Number of surviving mice in the re-challenge: 8/8
CT-26 tumor; Rechallenge Day 7
  Number of surviving mice in the re-challenge: 8/8
CT-26 tumor; Rechallenge Day 11
  Number of surviving mice in the re-challenge: 8/8
CT-26 tumor; Rechallenge Day 14
  Number of surviving mice in the re-challenge: 8/8
CT-26 tumor; Rechallenge Day 17
  Number of surviving mice in the re-challenge: 8/8
CT-26 tumor; Rechallenge Day 20
  Number of surviving mice in the re-challenge: 8/8
CT-26 tumor; Rechallenge Day 24
  Number of surviving mice in the re-challenge: 8/8
CT-26 tumor; Rechallenge Day 27
  Number of surviving mice in the re-challenge: 8/8
CT-26 tumor; Rechallenge Day 30
  Number of surviving mice in the re-challenge: 8/8
CT-26 tumor; Rechallenge Day 33
  Number of surviving mice in the re-challenge: 8/8

Source: patent US11161864B2, “Sting agonists” (Venenum Biodesign, LLC, priority 2018, dated 2021)
